Experimental data reported in patent US20220267479A1, “POLYIODIDE BINDING COMPOUNDS AND METHODS OF USE THEREOF” (North Carolina State University, priority 2019, published 2022).
Several values for one entry are separate records, joined by “and”; a condition that tells them apart may be missing. Equal entries are not always repeated.

What was measured:
[1] = target: T1, β-glucosidase from Agrobacterium (Agrobacterium sp., UniProt P12614); test: Indigogenic reaction with β-glucosidase from Agrobacterium; type: biochemical
T1 construct: purchased Megazyme; host or cells: recombinant
T1 sequence (P12614 1-459): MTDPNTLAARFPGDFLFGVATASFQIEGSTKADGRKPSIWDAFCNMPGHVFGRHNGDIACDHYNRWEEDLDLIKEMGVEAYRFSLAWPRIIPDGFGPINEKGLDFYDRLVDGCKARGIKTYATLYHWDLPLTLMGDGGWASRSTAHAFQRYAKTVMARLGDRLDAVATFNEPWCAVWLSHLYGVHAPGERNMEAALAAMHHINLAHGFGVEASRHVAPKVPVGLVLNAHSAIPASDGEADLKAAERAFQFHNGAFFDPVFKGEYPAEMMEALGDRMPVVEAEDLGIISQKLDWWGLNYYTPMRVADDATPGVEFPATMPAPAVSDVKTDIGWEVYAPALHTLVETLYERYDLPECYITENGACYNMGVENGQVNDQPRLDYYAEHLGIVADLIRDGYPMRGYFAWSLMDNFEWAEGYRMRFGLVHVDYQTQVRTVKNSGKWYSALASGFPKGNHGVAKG
Protocol: Next, the β-glucosidase from Agrobacterium sp. was investigated as the trigger enzyme for indigoid dye formation. […]
Reactions with β-glucosidase from Agrobacterium. An indoxyl compound in DMF (2 μL, 5 mM) and β-glucosidase from Agrobacterium in 10 mM phosphate buffer [2 μL, 10 μM, pH 7.0, containing 50 mM NaCl and 0.6 M (NH4)2SO4] were mixed with 50 mM phosphate buffer (96 μL, pH 7.0). The reaction mixture was incubated at 37° C. for 2 h and then centrifuged for 3 min. Any precipitate was separated from the supernatant and dissolved in DMF (200 μL). The resulting solution was analyzed by absorption spectroscopy. The experiment was repeated three times.

[2] = type: physicochemical; settings: pH 7.4
Text: Water solubility of the indoxyl glucoside is important for biological applications. […] Therefore, this compound is not suitable for bioconjugation. The synthesis of 34 relies on successive substitution of the dichloroanilinotriazine unit (derived from N,N-bis(2-methoxyethyl)aniline^31 and cyanuric chloride) with indoxyl-glucoside-PEG-OH and BCN-PEG-NH2 building blocks.
To improve the water solubility of the indoxyl species, a sulfobetaine unit^32,33 was incorporated as a water-solubilizing group. Sulfobetaines are stable zwitterions over a wide range of pH. Synthesis of an indoxyl bearing a sulfobetaine unit is illustrated in Scheme 6. Boc-piperazine (35) was treated with 1,3-propane sultone to afford 36 in 63% yield. Quaternization of the tertiary nitrogen atom in 36 with 3-bromopropanol gave Boc-protected sulfobetaine 37 in 69% yield. The Boc group was cleaved with trifluoroacetic acid (TFA) to afford piperazine-TFA salt 38 in 97% yield. The N-acetyl group of 32 was selectively deprotected with NaHCO3/MeOH in 84% yield. The product 39, piperazine-TFA salt 38, and BCN-amine 14 were assembled at a triazine ring via one-flask, successive substitution of cyanuric chloride to afford 40 in 51% yield. Cleavage of the acetyl groups of sulfobetaine 40 provided 41 in 98% yield.

[3] = tested on: β-glucosidase from almonds; test: Indigogenic reaction with β-glucosidase from almonds; type: biochemical
Text: With diverse glucosyl-indoxyl compounds in hand, we carried out a set of studies to examine indigoid-dye formation upon enzymatic cleavage of the glucosyl unit under physiological conditions. Altogether, 14 new (15, 16, 19-27, 30, 33, 41) and 2 known (1, 42) synthetic indoxyl-glucosides (lacking acetyl protecting groups) were examined in an effort to identify suitable combinations of substituents to support both bioconjugation and indigoid dye formation. In initial studies, β-glucosidase from almonds was employed to trigger indigoid dye formation (Table 1). Thus, a mixture of this enzyme (1 unit/mL) and an indoxyl β-glucoside (0.1 μmol, 1 mM) in acetate buffer (pH 5, containing 5% DMF) was incubated at 37° C. for 16-19 h. All indigoid dye was dissolved in each case for quantitative evaluation.
Reactions with β-glucosidase from almonds. An indoxyl compound in DMF (5 μL, 20 mM) and β-glucosidase from almonds in H2O (10 μL, 10 units/mL) were mixed with acetate buffer (85 μL, 50 mM, pH 5.0). The reaction mixture was incubated at 37° C. for 16-19 h and then allowed to cool to room temperature. DMF (300 μL for the reactions of 15, 16, 1, 19, 22, and 25; or 900 μL for the reactions of 42, 20, 21, 23, 24, 26, 27, 30, and 31, respectively) was added to dissolve any indigoid precipitate. The resulting solution was analyzed by absorption spectroscopy.

rat liver homogenate = test: Indigoid-dye formation in rat liver homogenate; type: biochemical; settings: indoxyl 1 mM, 5% DMF, 37° C., 24 h
Protocol: Finally, indigoid-dye formation was carried out in rat liver homogenate (Table 1, rightmost column).
Reactions in rat liver homogenate. An indoxyl compound in DMF (5 μL, 20 mM) was mixed with rat liver homogenate (95 μL). The reaction mixture was incubated at 37° C. for 24 h. After allowing to cool to room temperature, the reaction mixture was diluted with DMF (900 μL). The mixture was heated at 70° C. for 2 min and then centrifuged for 2 min. The supernatant was separated from any precipitate. This extraction procedure was repeated two or three times with DMF (100-500 μL). The combined supernatant (1500-1800 μL) was analyzed by absorption spectroscopy.

[4] = target: T2, β-glucosidase from Agrobacterium plus rat liver homogenate (Agrobacterium sp., UniProt P12614); test: Reaction of 33 with β-glucosidase from Agrobacterium in rat liver homogenate; type: biochemical; settings: 33 100 μM, enzyme 200 nM, 2% DMF, 37° C., 4 h; ε = 2.6 × 10^4 M^-1 cm^-1
T2 construct: purchased Megazyme; host or cells: recombinant
T2 sequence (P12614 1-459): T1 sequence (P12614 1-459)
Protocol: Finally, indigoid-dye formation was carried out in rat liver homogenate (Table 1, rightmost column). Good yields were obtained in the case of 42 (65%, entry 4) and 27 (50%, entry 13). […] However, when β-glucosidase from Agrobacterium (200 nM) was present in rat liver homogenate, the indigoid dye was obtained in 81% yield (entry 15).
Reaction of 33 with β-glucosidase from Agrobacterium in rat liver homogenate. A DMF solution of 33 (2 μL, 5 mM) and β-glucosidase from Agrobacterium in 10 mM phosphate buffer [2 μL, 10 μM, pH 7.0, containing 50 mM NaCl and 0.6 M (NH4)2SO4] were mixed with rat liver homogenate (96 μL). The reaction mixture was incubated at 37° C. for 4 h and then centrifuged for 3 min. Any precipitate was separated from the supernatant and then suspended in DMF (200 μL). The suspension was centrifuged for 3 min. The supernatant was analyzed by absorption spectroscopy.

tritosomes = test: Indigoid dye formation with tritosomes; type: biochemical
Protocol: The results from the glucosidase survey prompted several further experiments. First, a parallel set of studies was carried out with inclusion of several oxidants commonly employed in histochemical studies, given that the indigoid dye forming process requires the presence of an oxidant. […] The activity of the β-glucosidase was affected only slightly in the presence of a non-ionic detergent. To verify that the results observed in Table 1 were reliable, a 5-mg scale reaction of 33 was carried out to isolate indigo 43, which was obtained in 66% yield (Scheme 7). The 66% isolated yield corresponded well with the enzymatic yield of […] (Table 1, entry 15).
General methods. β-Glucosidase from almonds (lyophilized powder, >2 units/mg solid) and peroxidase from horseradish were purchased from Sigma-Aldrich. O-Glucosidase from Agrobacterium sp. (recombinant, suspension in 3.2 M (NH4)2SO4) was purchased from Megazyme; the concentration in solution was determined by absorption spectroscopy with E^0.1%32 2.20 cm^−1 at 280 nm.^37 Tritosomes were purchased from XenoTech. Rat liver homogenate was purchased from MP Biomedicals.

[5] = as E4 but ε = 2.6 × 10^4 M^-1 cm^-1 measured for 43

SMILES: O=C(NCCOCCOCCNc1nc(OCCOCCOCCOc2c(Br)cc3[nH]cc(OC4O[C@H](CO)[C@@H](O)[C@H](O)[C@H]4O)c3c2Br)nc(N2CC[N+](CCCO)(CCCS(=O)(=O)[O-])CC2)n1)OC[C@@H]1[C@@H]2CCC#CCC[C@@H]21 (stereo partly shown) [Indoxyl 41]
- Yield (%) β-glucosidase from Agrobacterium [1, 5]: 106% and 106 ± 4^g %
- Solubility [2]: > 400 µM

SMILES: OCCOCCOCCOc1c(Br)cc2[nH]cc(O[C@@H]3O[C@H](CO)[C@@H](O)[C@H](O)[C@H]3O)c2c1Br [Indoxyl 33, 4,6-Dibromo-5-[1-hydroxy-3,6,9-trioxanon-9-yl]-1H-indol-3-yl β-D-glucopyranoside]
- Yield (%) β-glucosidase from almonds ([3]; as E1 but ε = 2.6 × 10^4 M^-1 cm^-1 measured for 43): 52% and 52^g %
- Yield (%) rat liver homogenate (rat liver homogenate; ε = 2.6 × 10^4 M^-1 cm^-1 measured for 43): < 5%
- Yield of indigoid dye ([1]; 33 at 1.0 μM, enzyme 200 nM, pH 7.0, 2 h): 41%
- Yield of indigoid dye ([1]; 33 at 1.0 μM, enzyme 200 nM, pH 7.0, 14 h): 57%
- Yield of indigoid dye ([1]; 33 at 1.8 μM, enzyme 200 nM, pH 7.0, 2 h): 42%
- Yield of indigoid dye ([1]; 33 at 1.8 μM, enzyme 200 nM, pH 7.0, 14 h): 79%
- Yield of indigoid dye ([1]; 33 at 3.2 μM, enzyme 200 nM, pH 7.0, 2 h): 51%
- Yield of indigoid dye ([1]; 33 at 3.2 μM, enzyme 200 nM, pH 7.0, 14 h): 88%
- Yield of indigoid dye ([1]; 33 at 5.6 μM, enzyme 200 nM, pH 7.0, 2 h): 62%
- Yield of indigoid dye ([1]; 33 at 10 μM, enzyme 200 nM, pH 7.0, 2 h): 90%
- Yield of indigoid dye ([1]; 33 at 18 μM, enzyme 200 nM, pH 7.0, 2 h): 85%
- Yield of indigoid dye ([1]; 33 at 32 μM, enzyme 200 nM, pH 7.0, 2 h): 86%
- Yield of indigoid dye ([1]; 33 at 56 μM, enzyme 200 nM, pH 7.0, 2 h): 89%
- Yield (%) β-glucosidase from Agrobacterium [1, 5]: 99% and 99 ± 5^g %
- Yield of indigoid dye ([1]; pH 4, 33 100 μM, enzyme 200 nM, phosphate buffer, 37° C., 3 h): 6%
- Yield of indigoid dye ([1]; pH 5, 33 100 μM, enzyme 200 nM, phosphate buffer, 37° C., 3 h): 38%
- Yield of indigoid dye ([1]; pH 6-8, 10 nM enzyme, 33 100 μM, 2 h): 50-71%
- Yield of indigoid dye ([1]; pH 6-9, 33 100 μM, enzyme 200 nM, 3 h): High to quantitative yields
- Yield (%) β-glucosidase from Agrobacterium plus rat liver homogenate [4]: 81% and 81 ± 5%

SMILES: COc1nc(Oc2ccc3[nH]cc(O[C@@H]4O[C@H](CO)[C@@H](O)[C@H](O)[C@H]4O)c3c2)nc(N2CCOCC2)n1 [Indoxyl 19, 5-[(4-Methoxy-6-morpholino-1,3,5-triazin-2-yl)oxy]-1H-indole-3-yl β-D-glucopyranoside]
- Yield (%) β-glucosidase from almonds ([3]; indoxyl 1 mM, enzyme 1 unit/mL, acetate buffer pH 5, 5% DMF, 37° C., 16-19 h, ε = 1.27 × 10^4 M^-1 cm^-1 (measured for 4)): <1%
- Yield (%) rat liver homogenate (rat liver homogenate; ε = 1.27 × 10^4 M^-1 cm^-1): <5%
- Indigoid dye formation with tritosomes (tritosomes): low yield of indigoid dye
- Yield (%) β-glucosidase from Agrobacterium ([1]; indoxyl 100 μM, enzyme 200 nM, 0.05 M phosphate buffer pH 7.0, 2% DMF, 37° C., 2 h, n=3, ε = 1.27 × 10^4 M^-1 cm^-1): 46 ± 5%
